The source of these data is article PMC10733197, “Utilization of Rosuvastatin and Endogenous Biomarkers in Evaluating the Impact of Ritlecitinib on BCRP, OATP1B1, and OAT3 Transporter Activity” (Pharmaceutical Research, 2023).

SMILES strings stand for the structures.

This series addresses T1, OATP1B1 (Homo sapiens, UniProt Q9Y6L6).
T1 construct: expressed in transfected cells; host or cells: HEK293
T1 sequence (Q9Y6L6 1-691): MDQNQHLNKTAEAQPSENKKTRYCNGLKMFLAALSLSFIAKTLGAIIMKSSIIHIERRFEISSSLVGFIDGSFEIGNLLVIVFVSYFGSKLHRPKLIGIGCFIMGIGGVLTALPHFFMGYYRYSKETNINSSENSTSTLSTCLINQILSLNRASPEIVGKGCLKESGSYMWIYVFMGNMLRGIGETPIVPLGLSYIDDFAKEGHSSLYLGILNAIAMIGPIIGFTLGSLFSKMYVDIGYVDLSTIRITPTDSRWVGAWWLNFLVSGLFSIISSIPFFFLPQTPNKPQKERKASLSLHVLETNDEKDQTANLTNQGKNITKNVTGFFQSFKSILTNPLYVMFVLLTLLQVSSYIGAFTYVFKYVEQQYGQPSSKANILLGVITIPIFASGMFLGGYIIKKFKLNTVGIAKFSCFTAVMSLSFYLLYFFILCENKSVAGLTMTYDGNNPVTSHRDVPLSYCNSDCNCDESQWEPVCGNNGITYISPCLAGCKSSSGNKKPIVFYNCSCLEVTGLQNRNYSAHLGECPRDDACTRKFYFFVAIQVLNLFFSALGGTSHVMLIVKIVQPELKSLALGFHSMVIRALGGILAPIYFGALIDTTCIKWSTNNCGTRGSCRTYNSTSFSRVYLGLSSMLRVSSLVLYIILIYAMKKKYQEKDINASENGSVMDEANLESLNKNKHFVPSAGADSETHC
Kind of series: OATP1B1-mediated CP-I uptake inhibition in transfected HEK293 cells. The format is cell-based. Here is the method: Sources of human embryonic kidney (HEK) 293 cells expressing individual transfected human solute carriers (SLC), test substrates, and cell culture reagents, as well as detailed cell culture methods, incubations, and sample processing, have been described previously. SLC included hepatic OATP1B1, OATP1B3, and renal OAT1 and OAT3. […] Likewise, the uptake of non-labeled rosuvastatin (Biosynth, San Diego, CA) at 0.3—0.5 µM was determined for OATP1B1 and OATP1B3 at 1—3 min, and CP-I (Frontier Specialty Chemicals, Logan, UT) at 0.1 µM was determined for OATP1B1 and OATP1B3 at 10 min [14].
In all cases, ritlecitinib (0.018 to 1000 µM) and metabolite M2 (0.018 to 300 µM) was tested over a wide range of final concentrations dissolved in dimethyl sulfoxide (the final concentration of dimethyl sulfoxide in the assays was 1% v/v). For each transporter, the IC50 was estimated using a four-parameter logistic equation (Eq. 1) using GraphPad Prism software (GraphPad Software Inc, La Jolla, CA).1 %UptakeActivity=Bottom+(Top-Bottom)/1+10^(LogIC50-inhib*HillSlope)
Uptake of CP-I was determined by analysis of the in vitro assay samples using an optimized LC-high resolution mass spectrometry (HRMS) method. In brief, dried samples were reconstituted in 150 µL of 0.1% formic acid and analyzed by LC-HRMS. Analyte separation and detection was achieved using a Shimadzu Nexera high performance LC system (Shimazdu Scientific, MA, USA) coupled to a Sciex API-6600 Q-TOF (time of flight) mass spectrometer with a Turbo IonDrive source (Sciex Corporation, MA, USA). Chromatographic separation was achieved using a Waters Acquity BEH C18 1.7µ 2.1 mm x 100 mm column and a binary mobile phase system consisting of 0.1% v/v formic acid and 0.1% v/v formic acid in acetonitrile, as mobile phase A and B, respectively. The column temperature was held at 60 °C and the flow rate was 0.55 mL/minute. The gradient program had initial conditions of 5% B which was held for 0.9 min, followed by a linear ramp to 95% B over 5.1 min, a hold for 1.0 min, and a return to starting conditions over 0.1 min with re-equilibration for 0.9 min (total run time of 8.0 min). Analyte detection was achieved using an API-6600 Q T-OF mass spectrometer with electrospray ionization (ESI). The mass spectrometer was operated in both TOF-MS and TOF-MS/MS mode with data collected over a 60 to 670 dalton mass range. TOF-MS/MS data were collected in the high-resolution mode. Quantification of CP-I levels was assessed using targeted TOF-MS/MS data with accumulation times of 150 and 35 ms, respectively, for CP-I and the internal standard (ISTD) verapamil. […]

A word on the IC50: it is the concentration at which inhibition is half-maximal. The low end stands for inhibition by little substance, the high end for a need for much substance. For the compound `C=CC(=O)N1C[C@H](Nc2ncnc3[nH]ccc23)CC[C@@H]1C` [Ritlecitinib, ritlecitinib], the “Triggers Drug Interaction Cutoff” value (OATP1B1 (CP-I)) is reported as “Yes”. Also, the R-value (OATP1B1 (CP-I), 1 + (Imax,inlet,u/IC50), cutoff 1.1 (FDA), 1.04 (EMA)) is reported as 1.12. Also, the “Fraction Inhibited” value (OATP1B1 (CP-I), Imax,inlet,u/(Imax,inlet,u + IC50) (Eq. 1)) is recorded as 0.1. For the setting “hepatic OATP1B1, CP-I 0.1 µM as substrate, 10 min, HEK293, mean ± SD, n = 3”, 257 ± 8 µM corresponded to half-maximal inhibition (IC50).
